IC50 data for eleven compounds are collected here from patent US11168073B2, “3,3-difluoroallylamines or salts thereof and pharmaceutical compositions comprising the same” (YUHAN CORPORATION, priority 2018, dated 2021).

Structures are written as SMILES. Structures can show the parent of a compound that is named as a salt. Where two headings read alike, the source gives them in different places. Some results are limits rather than exact numbers.

Type in all cases: biochemical
The target in assay [1] is T1, recombinant human DAO (diamine oxidase) (Homo sapiens, UniProt P19801).
T1 construct: purchased R&D systems
T1 sequence (P19801 20-751): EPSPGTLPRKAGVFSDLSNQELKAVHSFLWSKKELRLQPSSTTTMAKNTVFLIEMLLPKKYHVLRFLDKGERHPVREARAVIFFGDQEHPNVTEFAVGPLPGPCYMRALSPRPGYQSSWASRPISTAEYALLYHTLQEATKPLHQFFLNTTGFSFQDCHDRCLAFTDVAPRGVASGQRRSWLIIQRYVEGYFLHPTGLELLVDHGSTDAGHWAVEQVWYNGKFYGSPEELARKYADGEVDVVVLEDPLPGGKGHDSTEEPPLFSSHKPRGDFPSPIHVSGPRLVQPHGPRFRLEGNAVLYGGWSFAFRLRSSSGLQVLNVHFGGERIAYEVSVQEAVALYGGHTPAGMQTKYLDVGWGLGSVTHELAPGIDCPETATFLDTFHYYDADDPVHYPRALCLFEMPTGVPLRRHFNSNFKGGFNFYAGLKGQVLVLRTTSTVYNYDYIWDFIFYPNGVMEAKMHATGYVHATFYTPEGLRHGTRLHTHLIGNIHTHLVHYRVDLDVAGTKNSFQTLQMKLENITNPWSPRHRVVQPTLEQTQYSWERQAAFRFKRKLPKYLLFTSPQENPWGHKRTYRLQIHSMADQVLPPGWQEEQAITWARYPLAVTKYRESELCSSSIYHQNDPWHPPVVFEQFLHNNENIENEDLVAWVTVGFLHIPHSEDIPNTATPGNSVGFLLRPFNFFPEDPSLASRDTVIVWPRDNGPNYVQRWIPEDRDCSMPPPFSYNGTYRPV
Briefly: Activity evaluation on recombinant human DAO (Amplex Red/HRP-coupled assay, 1 mM putrescine substrate). Conditions: read-out: Inhibitory Activity (IC50, nM) DAO. The method, boiled down: (§1)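 Compounds preincubated 30 min at 37 °C with enzyme in 50 mM sodium phosphate pH 7.4 (final DMSO <1%, 8-point 1:3 dilutions); reaction started with 200 uM Amplex Red, 1 U/mL HRP and substrate (MAO-A 0.5 mM tyramine, MAO-B 1 mM benzylamine, DAO 1 mM putrescine). Resorufin fluorescence (ex 544/em 590 nm) followed over 1-2 h; IC50 from four-parameter logistic fit.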

Assay [2] concerns the target T2, recombinant human MAO-A (monoamine oxidase-A) (Homo sapiens, UniProt P21397).
T2 construct: purchased Sigma-Aldrich
T2 sequence (P21397 1-527): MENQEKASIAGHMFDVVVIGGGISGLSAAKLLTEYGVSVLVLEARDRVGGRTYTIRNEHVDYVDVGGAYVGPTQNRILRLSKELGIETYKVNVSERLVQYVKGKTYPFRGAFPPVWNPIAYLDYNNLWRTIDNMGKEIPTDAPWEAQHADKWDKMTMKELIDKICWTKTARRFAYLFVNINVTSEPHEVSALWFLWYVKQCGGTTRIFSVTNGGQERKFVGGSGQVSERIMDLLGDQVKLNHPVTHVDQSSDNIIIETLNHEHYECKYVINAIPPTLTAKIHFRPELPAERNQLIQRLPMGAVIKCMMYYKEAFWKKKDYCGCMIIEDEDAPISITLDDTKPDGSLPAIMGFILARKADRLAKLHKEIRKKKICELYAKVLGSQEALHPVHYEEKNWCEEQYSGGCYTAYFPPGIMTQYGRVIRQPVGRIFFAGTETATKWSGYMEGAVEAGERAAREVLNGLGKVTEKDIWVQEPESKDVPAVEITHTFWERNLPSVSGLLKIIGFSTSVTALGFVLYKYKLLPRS
The assay is described as follows: Activity evaluation on recombinant human MAO-A (Amplex Red/HRP-coupled assay, 0.5 mM tyramine substrate). Conditions: read-out: Inhibitory Activity (IC50, nM) MAO-A. The method, boiled down:
as §1

The target of assay [3] is T3, recombinant human VAP-1 (Homo sapiens, UniProt Q16853).
T3 construct: purchased R&D systems
T3 sequence (Q16853 1-763): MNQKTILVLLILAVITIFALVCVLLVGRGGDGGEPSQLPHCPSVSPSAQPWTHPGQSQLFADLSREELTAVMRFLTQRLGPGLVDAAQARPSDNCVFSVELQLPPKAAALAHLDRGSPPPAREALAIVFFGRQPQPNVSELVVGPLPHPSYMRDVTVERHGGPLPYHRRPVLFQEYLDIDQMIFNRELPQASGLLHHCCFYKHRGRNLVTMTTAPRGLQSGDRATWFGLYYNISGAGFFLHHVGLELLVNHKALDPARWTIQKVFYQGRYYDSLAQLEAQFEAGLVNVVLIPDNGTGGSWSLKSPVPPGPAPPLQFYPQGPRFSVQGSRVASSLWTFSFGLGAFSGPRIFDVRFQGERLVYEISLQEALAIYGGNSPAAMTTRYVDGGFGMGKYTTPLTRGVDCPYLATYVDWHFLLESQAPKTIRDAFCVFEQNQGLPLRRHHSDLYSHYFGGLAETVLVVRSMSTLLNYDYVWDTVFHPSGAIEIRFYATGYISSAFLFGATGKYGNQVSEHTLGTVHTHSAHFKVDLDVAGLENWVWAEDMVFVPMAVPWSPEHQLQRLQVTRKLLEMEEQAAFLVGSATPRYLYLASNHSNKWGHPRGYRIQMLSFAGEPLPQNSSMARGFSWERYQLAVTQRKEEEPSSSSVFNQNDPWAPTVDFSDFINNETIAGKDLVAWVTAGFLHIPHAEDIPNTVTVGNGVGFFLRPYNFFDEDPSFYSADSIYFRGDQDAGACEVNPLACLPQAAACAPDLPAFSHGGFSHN
Briefly: Activity evaluation on recombinant human VAP-1 (Amplex Red/HRP-coupled hydrogen peroxide assay, benzylamine substrate). Conditions: read-out: Inhibitory Activity (IC50, nM) human VAP-1. In a few lines: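 Recombinant human VAP-1 in 50 mM sodium phosphate pH 7.4 preincubated 30 min at 37 °C with compound (8-point 1:3 series, <1% DMSO), then 1 mM benzylamine, 200 uM Amplex Red, 1 U/mL HRP added. H2O2-derived resorufin fluorescence (ex 544/em 590) followed 1–2 h; IC50 from four-parameter fit of rate inhibition.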

Assay [4] addresses T4, recombinant human MAO-B (monoamine oxidase-B) (Homo sapiens, UniProt P27338).
T4 construct: purchased Sigma-Aldrich
T4 sequence (P27338 1-520): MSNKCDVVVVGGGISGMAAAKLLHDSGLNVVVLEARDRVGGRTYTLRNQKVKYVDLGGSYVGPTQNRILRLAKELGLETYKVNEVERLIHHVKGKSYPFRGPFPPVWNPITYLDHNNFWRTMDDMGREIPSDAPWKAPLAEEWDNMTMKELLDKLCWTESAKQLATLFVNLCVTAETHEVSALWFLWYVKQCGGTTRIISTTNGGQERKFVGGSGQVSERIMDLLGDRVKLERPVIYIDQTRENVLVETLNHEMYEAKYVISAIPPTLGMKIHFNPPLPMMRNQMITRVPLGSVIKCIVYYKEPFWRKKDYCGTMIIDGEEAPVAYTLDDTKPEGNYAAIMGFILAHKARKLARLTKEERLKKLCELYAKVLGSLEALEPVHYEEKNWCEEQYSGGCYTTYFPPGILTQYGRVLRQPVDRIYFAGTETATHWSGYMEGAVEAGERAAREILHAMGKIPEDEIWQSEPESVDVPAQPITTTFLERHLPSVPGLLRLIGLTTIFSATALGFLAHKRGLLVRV
The assay is described as follows: Activity evaluation on recombinant human MAO-B (Amplex Red/HRP-coupled assay, 1 mM benzylamine substrate). Conditions: read-out: Inhibitory Activity (IC50, nM) MAO-B. The method, boiled down: as §1

Setting [5] is: recombinant human VAP-1, benzylamine substrate.
Where [6] appears, read: recombinant human VAP-1, 30 min preincubation at 37° C., 1 mM benzylamine.

In general, IC50 refers to the concentration that gives 50% inhibition. As to `Cc1c(-c2cccc(-c3nc[nH]n3)c2)cccc1-n1cnn(CC(CN)=C(F)F)c1=O` [Example 263, 2-[2-(aminomethyl)-3,3-difluoro-allyl]-4-[2-methyl-3-[3-(1H-1,2,4-triazol-3-yl)phenyl]phenyl]-1,2,4-triazol-3-one Trifluoroacetate], the half-maximal inhibitory concentration (IC50) was over 100000 nM in assay [1] (1 mM putrescine substrate), over 100000 nM in assay [2] (0.5 mM tyramine substrate), 29 nM in assay [3] (setting [5]) and over 100000 nM in assay [4] (1 mM benzylamine substrate).
On to `CS(=O)(=O)c1ccc(-c2ccc3cc(Cn4cnn(CC(CN)=C(F)F)c4=O)sc3c2)cc1` [Example 197, 2-[2-(aminomethyl)-3,3-difluoro-allyl]-4-[[6-(4-methylsulfonylphenyl)benzothiophen-2-yl]methyl]-1,2,4-triazol-3-one trifluoroacetate], for which the IC50 in assay [1] (1 mM putrescine substrate) was 2400 nM; in assay [2] (0.5 mM tyramine substrate), over 100000 nM; in assay [3] (setting [5]) it was 0.8 nM; in assay [4] (1 mM benzylamine substrate) it was 18000 nM.
The like results for `NCC(Cn1ncn(-c2cccc(-c3cccc(N4CCNCC4)c3)n2)c1=O)=C(F)F` [Example 216, 2-[2-(aminomethyl)-3,3-difluoro-allyl]-4-[6-(3-piperazin-1-ylphenyl)-2-pyridyl]-1,2,4-triazol-3-one Ditrifluoroacetate] were, in that order, 63 nM, over 100000 nM, 1.3 nM and over 100000 nM.
Consider `CCn1cc(-c2cnc(-n3cnn(CC(CN)=C(F)F)c3=O)c(F)c2)cn1` [Example 88, 2-[2-(aminomethyl)-3,3-difluoro-allyl]-4-[5-(1-ethylpyrazol-4-yl)-3-fluoro-2-pyridyl]-1,2,4-triazol-3-one Trifluoroacetate], for which the concentration for half-maximal inhibition (IC50) in assay [1] (1 mM putrescine) was 230 nM; in assay [2] (0.5 mM tyramine), over 100000 nM; in assay [3] (setting [6]), 0.3 nM; in assay [4] (1 mM benzylamine) it was 8200 nM.
Regarding `NCC(Cn1ncn(Cc2sc(-c3ccc(N4CCNCC4)cc3)cc2F)c1=O)=C(F)F` [Example 298, 2-[2-(aminomethyl)-3,3-difluoro-allyl]-4-[[3-fluoro-5-(4-piperazin-1-ylphenyl)-2-thienyl]methyl]-1,2,4-triazol-3-one ditrifluoroacetate], the IC50 in assay [1] (1 mM putrescine substrate) is 0.2 nM; in assay [2] (0.5 mM tyramine substrate) it was over 100000 nM; in assay [3] (setting [5]), 12 nM; in assay [4] (1 mM benzylamine substrate), over 100000 nM.
Regarding `CS(=O)(=O)c1ccc(-c2ccc(Cn3cnn(CC(CN)=C(F)F)c3=O)cc2)cc1` [Example 265, 2-[2-(aminomethyl)-3,3-difluoro-allyl]-4-[[4-(4-methylsulfonylphenyl)phenyl]methyl]-1,2,4-triazol-3-one Trifluoroacetate], the IC50 in assay [1] (1 mM putrescine substrate) is over 100000 nM; in assay [2] (0.5 mM tyramine substrate) it was over 100000 nM; in assay [3] (setting [5]), 1.4 nM; in assay [4] (1 mM benzylamine substrate), over 100000 nM.
On to `Cn1cc(-c2ccc(Cn3cnn(CC(CN)=C(F)F)c3=O)s2)ccc1=O` [Example 121, 5-[5-[[1-[2-(aminomethyl)-3,3-difluoro-allyl]-5-oxo-1,2,4-triazol-4-yl]methyl]-2-thienyl]-1-methyl-pyridin-2-one Trifluoroacetate], for which the concentration for half-maximal inhibition (IC50) in assay [1] (1 mM putrescine) is over 10000 nM; in assay [2] (0.5 mM tyramine), over 100000 nM; in assay [3] (setting [6]) it was 0.9 nM; in assay [4] (1 mM benzylamine) it was 40000 nM.
Regarding `NCC(Cn1ncn(-c2ccnc(-c3ccc(N4CCNCC4)cc3)c2)c1=O)=C(F)F` [Example 62, 2-[2-(aminomethyl)-3,3-difluoro-allyl]-4-[2-(4-piperazin-1-ylphenyl)-4-pyridyl]-1,2,4-triazol-3-one Ditrifluoroacetate], the IC50 is 160 nM in assay [1] (1 mM putrescine), over 100000 nM in assay [2] (0.5 mM tyramine), 1.5 nM in assay [3] (setting [6]) and over 100000 nM in assay [4] (1 mM benzylamine).
Take `CCn1cc(-c2ccc(Cn3cnn(CC(CN)=C(F)F)c3=O)cc2)cn1` [Example 264, 2-[2-(aminomethyl)-3,3-difluoro-allyl]-4-[[4-(1-ethylpyrazol-4-yl)phenyl]methyl]-1,2,4-triazol-3-one Trifluoroacetate]: the IC50 in assay [1] (1 mM putrescine substrate) is over 100000 nM; in assay [2] (0.5 mM tyramine substrate), over 100000 nM; in assay [3] (setting [5]) it was 1.3 nM; in assay [4] (1 mM benzylamine substrate), over 100000 nM.
Regarding `Cc1cc(Br)sc1Cn1cnn(CC(CN)=C(F)F)c1=O` [Example 99, 2-[2-(aminomethyl)-3,3-difluoro-allyl]-4-[(5-bromo-3-methyl-2-thienyl)methyl]-1,2,4-triazol-3-one Trifluoroacetate], the IC50 was over 100000 nM in assay [1] (1 mM putrescine), over 100000 nM in assay [2] (0.5 mM tyramine), 9.3 nM in assay [3] (setting [6]) and 21000 nM in assay [4] (1 mM benzylamine).
Take `CCn1cc(-c2cc(F)c(Cn3cnn(CC(CN)=C(F)F)c3=O)s2)ccc1=O` [Example 299, 5-[5-[[1-[2-(aminomethyl)-3,3-difluoro-allyl]-5-oxo-1,2,4-triazol-4-yl]methyl]-4-fluoro-2-thienyl]-1-ethyl-pyridin-2-one Trifluoroacetate]: the 50% inhibitory concentration (IC50) in assay [1] (1 mM putrescine substrate) was 9680 nM; in assay [2] (0.5 mM tyramine substrate), over 100000 nM; in assay [3] (setting [5]), 1.4 nM; in assay [4] (1 mM benzylamine substrate), over 100000 nM.
